PubChem BioAssay AID328 (DTP/NCI, 2004)
Where “and” joins values, the source holds several entries; their conditions need not be identical. Equal entries are not always repeated. Toxic doses and inconclusive results are not listed.

Test system: BDF1 mice, P388 leukemia ip, median survival T/C
Experiment: NCI In Vivo Anticancer Drug Screen. Data for tumor model P388 Leukemia (intraperitoneal) in B6D2F1 (BDF1) mice
Conditions: endpoint: median survival time, higher = longer survival
Procedure, shortened: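 Antitumour effect was judged in vivo: survival in drug-treated mice, normalised to that of vehicle-dosed controls, gives the reported T/C.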

[1] = dose: 12.5 mg/kg/injection, schedule: Q01DX009 (ip), vehicle: saline with Tween-80
[2] = dose: 25.0 mg/kg/injection, schedule: Q01DX009 (ip), vehicle: saline with Tween-80
[3] = dose: 50.0 mg/kg/injection, schedule: Q01DX009 (ip), vehicle: saline with Tween-80
[4] = dose: 100.0 mg/kg/injection, schedule: Q01DX009 (ip), vehicle: saline with Tween-80
[5] = dose: 200.0 mg/kg/injection, schedule: Q01DX009 (ip), vehicle: saline with Tween-80
[6] = dose: 50.0 mg/kg/injection, schedule: Q04DX003 (ip), vehicle: saline
[7] = dose: 100.0 mg/kg/injection, schedule: Q04DX003 (ip), vehicle: saline
[8] = dose: 200.0 mg/kg/injection, schedule: Q04DX003 (ip), vehicle: saline with Tween-80
[9] = dose: 100.0 mg/kg/injection, schedule: Q01DX009 (ip), vehicle: Klucel (hydroxypropylcellulose) (HPC)
[10] = dose: 200.0 mg/kg/injection, schedule: Q01DX009 (ip), vehicle: Klucel (hydroxypropylcellulose) (HPC)
[11] = dose: 25.0 mg/kg/injection, schedule: Q04DX003 (ip), vehicle: saline with Tween-80
[12] = dose: 50.0 mg/kg/injection, schedule: Q01DX009 (ip), vehicle: Klucel (hydroxypropylcellulose) (HPC)
[13] = dose: 50.0 mg/kg/injection, schedule: Q04DX003 (ip), vehicle: saline with Tween-80
[14] = dose: 100.0 mg/kg/injection, schedule: Q04DX003 (ip), vehicle: saline with Tween-80
[15] = dose: 400.0 mg/kg/injection, schedule: Q04DX003 (ip), vehicle: saline with Tween-80

## CN(C)c1ccc(-c2cc(C(=O)O)c3cc4ccccc4cc3n2)cc1
[1]
  T/C: 97 % of control
[2]
  T/C: 97 % of control
[3]
  T/C: 94 % of control and 102 % of control
[4]
  T/C: 98 % of control and 104 % of control

## CC(C)NC(=O)c1ccccc1Sc1ccccc1
[3]
  T/C: 100 % of control
[4]
  T/C: 106 % of control
[5]
  T/C: 108 % of control

## OCCN(CCO)c1cc(/C=C/c2cccc3ccccc23)nc2ccccc12
dose: 50.0 mg/kg/injection, schedule: Q01DX009 (ip), vehicle: saline + alcohol
  T/C: 100 % of control
dose: 100.0 mg/kg/injection, schedule: Q01DX009 (ip), vehicle: saline + alcohol
  T/C: 100 % of control
dose: 200.0 mg/kg/injection, schedule: Q01DX009 (ip), vehicle: saline + alcohol
  T/C: 103 % of control

## O=[N+]([O-])c1ccc(N2CCCCCC2)c2c1no[n+]2[O-]
dose: 15.0 mg/kg/injection, schedule: Q01DX009 (ip), vehicle: saline with Tween-80
  T/C: 90 % of control
dose: 30.0 mg/kg/injection, schedule: Q01DX009 (ip), vehicle: saline with Tween-80
  T/C: 95 % of control
dose: 60.0 mg/kg/injection, schedule: Q01DX009 (ip), vehicle: saline with Tween-80
  T/C: 95 % of control

## CCCCOP(=O)(N1CC1CC)N1CC1CC (centres undefined)
[6]
  T/C: 123 % of control
dose: 60.0 mg/kg/injection, schedule: Q04DX003 (ip), vehicle: saline
  T/C: 122 % of control
dose: 85.0 mg/kg/injection, schedule: Q04DX003 (ip), vehicle: saline
  T/C: 122 % of control
[7]
  T/C: 150 % of control
dose: 133.0 mg/kg/injection, schedule: Q04DX003 (ip), vehicle: saline with Tween-80
  T/C: 109 % of control
dose: 133.0 mg/kg/injection, schedule: Q04DX003 (ip), vehicle: saline
  T/C: 100 % of control
[8]
  T/C: 109 % of control
dose: 300.0 mg/kg/injection, schedule: Q04DX003 (ip), vehicle: saline
  T/C: 176 % of control

## [O-][n+]1c(-c2ccccc2)cn2ccccc21
dose: 100.0 mg/kg/injection, schedule: Q01DX001 (ip), vehicle: saline with Tween-80
  T/C: 105 % of control
dose: 200.0 mg/kg/injection, schedule: Q01DX001 (ip), vehicle: saline with Tween-80
  T/C: 98 % of control

## COc1ccc(OC)c(NC(=O)Nc2c(C)n(C)n(-c3ccccc3)c2=O)c1
[9]
  T/C: 105 % of control
[10]
  T/C: 90 % of control
dose: 400.0 mg/kg/injection, schedule: Q01DX009 (ip), vehicle: Klucel (hydroxypropylcellulose) (HPC)
  T/C: 105 % of control

## O=C(O)c1cc(B(O)O)[nH]n1
dose: 50.0 mg/kg/injection, schedule: Q01DX001 (ip), vehicle: saline sonified
  T/C: 104 % of control
dose: 100.0 mg/kg/injection, schedule: Q01DX001 (ip), vehicle: saline sonified
  T/C: 100 % of control
dose: 200.0 mg/kg/injection, schedule: Q01DX001 (ip), vehicle: saline sonified
  T/C: 100 % of control

## O=[N+]([O-])/C=C/c1c(Cl)cccc1Cl
dose: 50.0 mg/kg/injection, schedule: Q04DX003 (ip), vehicle: other
  T/C: 122 % of control

## O=C(O)CNC(=O)c1ccc([N+](=O)[O-])cc1
[4]
  T/C: 90 % of control
[5]
  T/C: 90 % of control
dose: 400.0 mg/kg/injection, schedule: Q01DX009 (ip), vehicle: saline with Tween-80
  T/C: 86 % of control

## O=I(=O)c1ccccc1
dose: 12.5 mg/kg/injection, schedule: Q01DX009 (ip), vehicle: Klucel (hydroxypropylcellulose) (HPC)
  T/C: 91 % of control
dose: 17.0 mg/kg/injection, schedule: Q01DX009 (ip), vehicle: saline with Tween-80
  T/C: 92 % of control
dose: 25.0 mg/kg/injection, schedule: Q01DX009 (ip), vehicle: Klucel (hydroxypropylcellulose) (HPC)
  T/C: 86 % of control and 100 % of control
[2]
  T/C: 96 % of control
[11]
  T/C: 100 % of control
dose: 37.0 mg/kg/injection, schedule: Q01DX009 (ip), vehicle: saline with Tween-80
  T/C: 96 % of control
[12]
  T/C: 86 % of control and 90 % of control and 118 % of control
[3]
  T/C: 115 % of control
[13]
  T/C: 90 % of control
[9]
  T/C: 104 % of control
[4]
  T/C: 120 % of control
[14]
  T/C: 90 % of control

## CC(C)(O)C1C2OC(=O)C1C1(O)CC3OC34C(=O)OC2C14C (centres undefined)
dose: 12.5 mg/kg/injection, schedule: Q04DX003 (ip), vehicle: saline with Tween-80
  T/C: 109 % of control
[11]
  T/C: 95 % of control

## CCN1CCCC(Nc2nc(Nc3cc(Cl)cc(Cl)c3)nc3ccc(Cl)cc23)C1 (centres undefined)
dose: 6.25 mg/kg/injection, schedule: Q01DX009 (ip), vehicle: saline with Tween-80
  T/C: 122 % of control
[1]
  T/C: 109 % of control
[2]
  T/C: 109 % of control

## CP1(=O)CC(=O)CCC(=O)C1
dose: 50.0 mg/kg/injection, schedule: Q04DX002 (ip), vehicle: saline
  T/C: 104 % of control
dose: 100.0 mg/kg/injection, schedule: Q04DX002 (ip), vehicle: saline
  T/C: 105 % of control
dose: 200.0 mg/kg/injection, schedule: Q04DX002 (ip), vehicle: saline
  T/C: 106 % of control

## CS(=O)(=O)NN
dose: 12.5 mg/kg/injection, schedule: Q01DX009 (ip), vehicle: saline
  T/C: 95 % of control
dose: 25.0 mg/kg/injection, schedule: Q01DX009 (ip), vehicle: saline
  T/C: 95 % of control
dose: 37.5 mg/kg/injection, schedule: Q04DX003 (ip), vehicle: saline
  T/C: 100 % of control
dose: 50.0 mg/kg/injection, schedule: Q01DX009 (ip), vehicle: saline
  T/C: 90 % of control
dose: 75.0 mg/kg/injection, schedule: Q04DX003 (ip), vehicle: saline
  T/C: 90 % of control

## COC(=O)/C=C1\C(C(=O)OC)=Cc2ccccc2N1C
[1]
  T/C: 100 % of control
[2]
  T/C: 100 % of control
[11]
  T/C: 104 % of control
[3]
  T/C: 105 % of control
[13]
  T/C: 100 % of control
[4]
  T/C: 91 % of control
[14]
  T/C: 87 % of control and 90 % of control
[8]
  T/C: 87 % of control

## CC(=N\[O-])/C(C)=N/O.CC(=N\[O-])/C(C)=N/O.[Cl-].[Cl-].[Rh+3].c1ccncc1
dose: 75.0 mg/kg/injection, schedule: Q01DX009 (ip), vehicle: water
  T/C: 110 % of control
dose: 150.0 mg/kg/injection, schedule: Q01DX009 (ip), vehicle: water
  T/C: 110 % of control

## CCOC(=O)c1c(OC(C)=O)cc2c(c1OC(C)=O)-c1ccccc1CC2
[14]
  T/C: 90 % of control
[8]
  T/C: 97 % of control
[15]
  T/C: 99 % of control

## O=C1CN(N2C(=O)CSC2C23CC4CC(CC(C4)C2)C3)C(=O)CN1c1ccccc1 (centres undefined)
[3]
  T/C: 92 % of control
[4]
  T/C: 92 % of control

## C/C=C(/C)C(=O)O[C@H]1CC[N+]2([O-])CC=C(COC(=O)[C@@](O)([C@H](C)OC)C(C)(C)O)[C@H]12 (some centres undefined)
dose: 40.0 mg/kg/injection, schedule: Q01DX010 (ip), vehicle: saline
  T/C: 105 % of control
dose: 50.0 mg/kg/injection, schedule: Q01DX010 (ip), vehicle: saline
  T/C: 86 % of control
dose: 80.0 mg/kg/injection, schedule: Q01DX010 (ip), vehicle: saline
  T/C: 111 % of control

## C/C(=C\Br)CO
[6]
  T/C: 90 % of control
dose: 100.0 mg/kg/injection, schedule: Q01DX009 (ip), vehicle: saline
  T/C: 105 % of control
[7]
  T/C: 105 % of control
dose: 200.0 mg/kg/injection, schedule: Q01DX009 (ip), vehicle: saline
  T/C: 95 % of control
dose: 200.0 mg/kg/injection, schedule: Q04DX003 (ip), vehicle: saline
  T/C: 90 % of control

## Cn1c2ccccc2c2c3c(ccc21)C(=O)C=CC3=O
[14]
  T/C: 113 % of control
[8]
  T/C: 102 % of control
[15]
  T/C: 121 % of control

## CCOC(CCC#N)c1ccccc1 (centres undefined)
dose: 266.0 mg/kg/injection, schedule: Q04DX003 (ip), vehicle: saline with Tween-80
  T/C: 114 % of control
[15]
  T/C: 114 % of control
dose: 600.0 mg/kg/injection, schedule: Q04DX003 (ip), vehicle: saline with Tween-80
  T/C: 119 % of control

## CC(C)N=Cc1ccccc1O.CC(C)N=Cc1ccccc1O.[Ni]
dose: 6.25 mg/kg/injection, schedule: Q04DX003 (ip), vehicle: saline sonified
  T/C: 105 % of control
dose: 12.5 mg/kg/injection, schedule: Q04DX003 (ip), vehicle: saline sonified
  T/C: 105 % of control
dose: 25.0 mg/kg/injection, schedule: Q04DX003 (ip), vehicle: saline sonified
  T/C: 115 % of control

## CP12(OC(=O)c3ccccc31)OC(=O)c1ccccc12
[3]
  T/C: 91 % of control
[4]
  T/C: 91 % of control
[5]
  T/C: 96 % of control

## O=C(O/N=C1\C2CCC(C2)C1Cl)c1ccc([N+](=O)[O-])cc1 (centres undefined)
dose: 12.5 mg/kg/injection, schedule: Q04DX003 (ip), vehicle: saline
  T/C: 100 % of control
dose: 25.0 mg/kg/injection, schedule: Q04DX003 (ip), vehicle: saline
  T/C: 96 % of control
[6]
  T/C: 103 % of control

## CC(c1ccccc1)N1CCS(=O)(=O)CC1 (centres undefined)
[12]
  T/C: 93 % of control
[9]
  T/C: 106 % of control
[10]
  T/C: 90 % of control
